{"source": "patent US10328130B2", "about": "“Modified hyaluronidases and uses in treating hyaluronan-associated diseases and conditions” (Halozyme, Inc., priority 2008, dated 2019)", "key": {"PC-3M-luc-C6 cells": {"tested_on": "PC-3M-luc-C6 cells", "experiment": "PC-3M-luc-C6 bone metastasis model: survival and bioluminescent imaging", "type": "in vivo, mouse", "details": "for % survival: day 49", "protocol": "Due to the bioluminescence of the PC-3M-luc-C6 cells, in addition to monitoring the survival of the mice, the mice were imaged to visualize the PC-3M-luc-C6 metastases. Briefly, 7-10 week old nu/nu male mice (Charles River Laboratories) were anesthetized and injected with 3×10^6 PC-3M-luc-C6 cells (a bioluminescent human prostate carcinoma cell line) suspended in 50 μL sterile DPBS by intracardial injection on day 0. Mice were injected into the left ventricle of the heart by non-surgical means to increase the potential for metastasis from PC-3M-luc-C6 cells. The intracardiac injection of tumor cells bypasses the lungs and serves as a method to disperse cells into general circulation in order to allow seeding of metastasis in multiple tissues within an animal. A satisfactory injection into the left ventricle was detectable within minutes by bioluminescent imaging (BLI) and was identified by an immediate but transient systemic bioluminescence over the entire animal, as indicated by complete blue signal BLI of mice. An unsuccessful implantation produced a more localized signal generally isolated and sustained over time solely within the thoracic region of the animal. […] Mice with successful intra-cardiac injection of PC-3Mluc-C6 cells on day 0 (n=10−13 mice/Grp) were imaged twice a week for up to four weeks and subsequently followed up for survival till day 49 and beyond that time point.\nOn day 14, the mice were subjected to one of several treatment regimens. A set of control mice was administered API buffer (10 mM Hepes and 130 mM NaCl, pH 7.0) only on days 14, 16, 18, 21, 23, 25, 28, 30, and 32.\nThe in vivo bioluminescent signal from the jaw region of mice corresponds to micrometastases in the dental pulp, mandible or cervical lymph nodes. Lower limb in vivo signals corresponded to metastatic lesions identified in the tibia or femur leg bones. The thoracic signals that are observed in vivo are associated with residual tumor cells that had seeded into the heart, lung or the pleural surface of the chest cavity. Mice with images indicating a successful systemic injection on day 0 and showing in vivo evidence of metastasis by day 29 were included in the analysis of the treatment groups."}, "[1]": {"tested_on": "PC3 prostate cancer xenograft tumor"}, "[2]": {"details": "PEGylated rHuPH20 10,000 U/mouse and/or Taxotere 10 mg/kg (admixed) IV"}, "[3]": {"details": "Taxotere 30 mg/kg IV days 14 and 21"}, "[4]": {"details": "PEGylated rHuPH20 10,000 U/mouse and/or docetaxel 10 mg/kg IV"}}, "note": "Read-outs that look alike come from different tables or passages of the source.", "data": [{"molecule": "CC(=O)O[C@@]12CO[C@@H]1C[C@H](O)[C@@]1(C)C(=O)[C@H](O)C3=C(C)[C@@H](OC(=O)[C@H](O)[C@@H](NC(=O)OC(C)(C)C)c4ccccc4)C[C@@](O)([C@@H](OC(=O)c4ccccc4)[C@H]21)C3(C)C", "note": "[Taxotere ® (docetaxel), docetaxel]", "values": [{"measurement": "No. of animals alive at day 49", "setting": "PC-3M-luc-C6 cells; [2]", "result": 9}, {"measurement": "surviving animals at day 29", "setting": "PC-3M-luc-C6 cells; Taxotere 10 mg/kg or PEGylated rHuPH20 10,000 U/mouse alone", "result": "9 out of 12"}, {"measurement": "No. of animals alive at day 49", "setting": "PC-3M-luc-C6 cells; [3]", "result": 10}, {"measurement": "mice remaining alive at Day 29", "setting": "PC-3M-luc-C6 cells; [3]", "result": "10 out of 11"}, {"measurement": "% survival", "setting": "PC-3M-luc-C6 cells; [2]", "result": 75.00, "unit": "%"}, {"measurement": "% survival", "setting": "PC-3M-luc-C6 cells; [3]", "result": 90.91, "unit": "%"}, {"measurement": "Average Survival Time (to 1500 mm^3 tumor volume)", "setting": "[1]; [4]", "result": "38.96 ± 7.07"}, {"measurement": "MST (Median Survival Time to 1500 mm^3 tumor volume)", "setting": "[1]; [4]", "result": 32.9, "unit": "days"}, {"measurement": "Tumor volume", "setting": "[1]; day 4, PEGylated rHuPH20 10,000 U/mouse and/or docetaxel 10 mg/kg IV", "result": 687.27, "unit": "mm3"}, {"measurement": "Tumor volume", "setting": "[1]; day 4, docetaxel 30 mg/kg IV", "result": 497.04, "unit": "mm3"}, {"measurement": "Tumor volume", "setting": "[1]; day 13, PEGylated rHuPH20 10,000 U/mouse and/or docetaxel 10 mg/kg IV", "result": 869.25, "unit": "mm3"}, {"measurement": "Tumor volume", "setting": "[1]; day 13, docetaxel 30 mg/kg IV", "result": 401.12, "unit": "mm3"}, {"measurement": "Tumor volume", "setting": "[1]; day 21, PEGylated rHuPH20 10,000 U/mouse and/or docetaxel 10 mg/kg IV", "result": 1011.1, "unit": "mm3"}, {"measurement": "Tumor volume", "setting": "[1]; day 21, docetaxel 30 mg/kg IV", "result": 409.02, "unit": "mm3"}, {"measurement": "Tumor volume", "setting": "[1]; day 27, PEGylated rHuPH20 10,000 U/mouse and/or docetaxel 10 mg/kg IV", "result": 1260.7, "unit": "mm3"}, {"measurement": "Tumor volume", "setting": "[1]; day 27, docetaxel 30 mg/kg IV", "result": 291.65, "unit": "mm3"}, {"measurement": "Tumor volume", "setting": "[1]; day 35, PEGylated rHuPH20 10,000 U/mouse and/or docetaxel 10 mg/kg IV", "result": 1441.1, "unit": "mm3"}, {"measurement": "Tumor volume", "setting": "[1]; day 35, docetaxel 30 mg/kg IV", "result": 213.73, "unit": "mm3"}, {"measurement": "Tumor volume", "setting": "[1]; day 42, PEGylated rHuPH20 10,000 U/mouse and/or docetaxel 10 mg/kg IV", "result": 1552.1, "unit": "mm3"}, {"measurement": "Tumor volume", "setting": "[1]; day 42, docetaxel 30 mg/kg IV", "result": 147.05, "unit": "mm3"}, {"measurement": "Tumor volume", "setting": "[1]; day 50, docetaxel 30 mg/kg IV", "result": 130.2, "unit": "mm3"}, {"measurement": "Tumor volume", "setting": "[1]; day 61, docetaxel 30 mg/kg IV", "result": 343.03, "unit": "mm3"}, {"measurement": "Tumor volume", "setting": "[1]; day 73, docetaxel 30 mg/kg IV", "result": 865.5, "unit": "mm3"}, {"measurement": "Tumor volume", "setting": "[1]; day −1 (before treatment), PEGylated rHuPH20 10,000 U/mouse and/or docetaxel 10 mg/kg IV", "result": 470.39, "unit": "mm3"}, {"measurement": "Tumor volume", "setting": "[1]; day −1 (before treatment), docetaxel 30 mg/kg IV", "result": 471.34, "unit": "mm3"}, {"measurement": "% ILS", "setting": "[1]; increase in life span vs API buffer control, PEGylated rHuPH20 10,000 U/mouse and/or docetaxel 10 mg/kg", "result": 59, "unit": "%"}, {"measurement": "% T/C", "setting": "[1]; median survival time vs API buffer control, PEGylated rHuPH20 10,000 U/mouse and/or docetaxel 10 mg/kg", "result": 157, "unit": "%"}]}]}
